Source: patent US20260297042A1, “BIARYLAMIDE DERIVATIVES AND THEIR USE AS PKMYT1 INHIBITORS” (CANCER RESEARCH TECHNOLOGY LIMITED, priority 2023, published 2026)

Assays:
Human PKMYT1 = molecular target: T1, Human PKMYT1 (Homo sapiens, UniProt Q99640); assay: PKMYT1 biochemical ADP-Glo enzymatic assay
T1 construct: Human PKMYT1 75-362 was cloned as a TEV cleavable 6xHis fusion; 6xHis (TEV cleavable) (cleaved yes); made in house; host or cells: bacterial cells
T1 sequence (Q99640 75-362): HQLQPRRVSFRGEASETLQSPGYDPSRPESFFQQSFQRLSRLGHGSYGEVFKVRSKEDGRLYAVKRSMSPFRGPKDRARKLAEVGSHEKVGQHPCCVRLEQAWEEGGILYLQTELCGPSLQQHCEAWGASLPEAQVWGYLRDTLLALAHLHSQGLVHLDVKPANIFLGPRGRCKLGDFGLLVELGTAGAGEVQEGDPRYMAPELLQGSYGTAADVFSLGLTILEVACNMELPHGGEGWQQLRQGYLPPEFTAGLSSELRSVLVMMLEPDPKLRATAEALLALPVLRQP
Experimental: Human PKMYT1 75-362 was cloned as a TEV cleavable 6xHis fusion in bacterial cells. After purification on a Ni++HiTrap Chelating HP column, the His-tag was cleaved using TEV protease. Cleaved PKMYT1 was further purified on a Superdex 200 16/600 sizing column. The fractions containing PKMYT1 were pooled and concentrated using an ultrafiltration centrifugal protein concentrator. The purified protein was aliquoted, flash frozen in liquid nitrogen, and stored at −80° C.
PKMYT1 biochemical assay: Inhibition of PKMYT1 was assessed using the ADP-Glo™ Max Detection System from Promega. This assay detects the production of ADP from ATP by PKMYT1 via a two-step process ultimately involving the conversion of ADP to ATP with the latter converted to light in a coupled reaction with luciferase/luciferin. Inhibition of PKMYT1 by small molecule inhibitors results in a retardation of luminescence above background. The intrinsic ATPase activity of PKMYT1 was assessed according to the following protocol. Compounds were dosed into Corning white low volume 384 well assay plates using an Echo acoustic dispenser to generate 10-point curves spanning a 3-fold dilution series. DMSO (no inhibitor) control wells were prepared to benchmark the maximum and minimum signals in the presence and absence of PKMYT1, respectively. The PKMYT1 kinase domain was purified in-house, as described above, and added to the wells at a final concentration of 15 nM in a buffer of 50 mM HEPES (pH 7.5), 10 mM MgCl2, 1 mM EGTA, 0.01% Brij-35, 1% DMSO. 500 µM ATP was added to start the reaction with the final assay volume being 4 μl. The plate was then incubated for 60 minutes at 26° C. before the addition of 4 μl of ADP-Glo Reagent to stop the reaction and deplete the unconsumed ATP. Following a further 60 minute incubation the assay signal was developed by the addition of 8 μl ADP-Glo Max Detection Reagent. After 60 minutes the luminescence signal was read on a PHERAStar FS microplate reader (BMG Labtech).
(§1) Data analysis: Data was captured and analysed within the Dotmatics Studies software module where dose response curves were generated and IC50 values determined. Acceptance and verification of data followed strict in-house business rules which are summarised as follows. […] Technical and biological replicates of each compound are routinely tested and replicate IC50 values must fall within 3-fold of each other with dose response curves showing ‘goodness of fit’ r2 values >0.9. Failure to meet any of these defined criteria result in rejection of data.

WEE1 = molecular target: T2, WEE1 (Homo sapiens, UniProt P30291); assay: Selectivity versus WEE1 assay (ADP-Glo enzymatic assay); type: biochemical; details: banded; for IC50: ADP-Glo, 15 nM WEE1, 60 minutes at 26° C.; for PKMYT1 vs. WEE1 selectivity: fold difference in selectivity for PKMYT1 over WEE1, ">N" = at least in this band but could be higher
T2 construct: purchased Thermo Fisher PR7373A
T2 sequence (P30291 whole entry): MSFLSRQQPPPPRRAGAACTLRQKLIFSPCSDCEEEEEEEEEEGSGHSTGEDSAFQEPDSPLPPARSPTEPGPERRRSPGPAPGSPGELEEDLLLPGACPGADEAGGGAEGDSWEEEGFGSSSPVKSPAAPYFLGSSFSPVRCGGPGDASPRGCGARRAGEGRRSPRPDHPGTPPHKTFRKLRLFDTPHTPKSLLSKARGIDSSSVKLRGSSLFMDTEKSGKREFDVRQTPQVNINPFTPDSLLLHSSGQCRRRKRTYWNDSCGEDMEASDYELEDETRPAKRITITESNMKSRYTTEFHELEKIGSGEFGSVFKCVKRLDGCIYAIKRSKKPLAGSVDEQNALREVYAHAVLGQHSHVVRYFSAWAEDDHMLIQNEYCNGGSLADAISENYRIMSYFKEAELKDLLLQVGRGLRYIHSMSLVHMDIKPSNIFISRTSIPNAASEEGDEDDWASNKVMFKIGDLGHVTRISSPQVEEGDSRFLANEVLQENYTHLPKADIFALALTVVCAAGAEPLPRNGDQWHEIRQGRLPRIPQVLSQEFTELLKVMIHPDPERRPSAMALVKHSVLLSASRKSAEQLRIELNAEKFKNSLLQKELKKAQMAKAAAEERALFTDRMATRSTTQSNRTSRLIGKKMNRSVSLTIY
Experimental: Selectivity versus WEE1 assay: Selectivity was established using the same format as outlined for PKMYT1. After dosing of compounds via the Echo acoustic dispenser—as described above—WEE1 (Thermo Fisher PR7373A) was added to each well at a final concentration of 15 nM in a buffer of 50 mM HEPES (pH 7.5), 10 mM MgCl2, 1 mM EGTA, 0.01% Brij-35, 1% DMSO. 30 µM ATP was added to start the reaction with the final assay volume being 4 μl. The plate was then incubated for 60 minutes at 26° C. before the addition of 4 μl of ADP-Glo Reagent. Following a further 60 minute incubation the assay signal was developed by the addition of 8 μl ADP-Glo Detection Reagent. After 60 minutes the luminescence signal was read on a PHERAStar FS microplate reader (BMG Labtech).
as §1

[1] = ADP-Glo, 15 nM PKMYT1 kinase domain, 500 µM ATP, 60 minutes at 26° C., banded

Row | SMILES | IC50 (Human PKMYT1; [1]) | IC50 (Human PKMYT1; PKMYT1 biochemical ADP-Glo enzymatic assay, Comparison Data 1) | improvement in PKMYT1 IC50 as compared to REF-001 (Human PKMYT1; vs REF-001) | improvement in PKMYT1 IC50 as compared to REF-002 (Human PKMYT1; vs REF-002) | IC50 (WEE1) | PKMYT1 vs. WEE1 selectivity (WEE1) | IC50 (Human PKMYT1; PKMYT1 biochemical ADP-Glo enzymatic assay, Comparison Data 2) | improvement in PKMYT1 IC50 as compared to REF-003 (Human PKMYT1; vs REF-003) | improvement in PKMYT1 IC50 as compared to REF-004 (Human PKMYT1; vs REF-004)
1 | Cc1ccc(O)c(C)c1NC(=O)c1cnc(Nc2ccn(C)n2)s1 [BAA-004, N-(3-hydroxy-2,6-dimethyl-phenyl)-2-[(1-methylpyrazol-3-yl)amino]thiazole-5-carboxamide] | 50 to 1000 nM | – | – | – | 1000 to 11000 nM | X (100-<1000 fold) | 55 nM | 987 fold | > 1800 fold
2 | CCCn1ccc(Nc2ncc(C(=O)Nc3c(C)ccc(O)c3C)s2)n1 [BAA-006, N-(3-hydroxy-2,6-dimethyl-phenyl)-2-[(1-propylpyrazol-3-yl)amino]thiazole-5-carboxamide] | 50 to 1000 nM | – | – | – | > 11000 nM | X (100-<1000 fold) | – | – | –
3 | Cc1ccc(O)c(C)c1NC(=O)c1cnc(Nc2ccn(C(C)C)n2)s1 [BAA-008, N-(3-hydroxy-2,6-dimethyl-phenyl)-2-[(1-isopropylpyrazol-3-yl)amino]thiazole-5-carboxamide] | 50 to 1000 nM | – | – | – | 1000 to 11000 nM | X (100-<1000 fold) | – | – | –
4 | Cc1ccc(O)c(C)c1NC(=O)c1cnc(Nc2ccon2)s1 [BAA-009, N-(3-hydroxy-2,6-dimethyl-phenyl)-2-(isoxazol-3-ylamino)thiazole-5-carboxamide] | < 50 nM | – | – | – | > 11000 nM | X (100-<1000 fold) | – | – | –
5 | Cc1ccc(O)c(C)c1NC(=O)c1cnc(Nc2ccnn2C)s1 [BAA-010, N-(3-hydroxy-2,6-dimethyl-phenyl)-2-[(2-methylpyrazol-3-yl)amino]thiazole-5-carboxamide] | 50 to 1000 nM | – | – | – | > 11000 nM | Y (1000-5000 fold) | – | – | –
6 | Cc1ccc(O)c(C)c1NC(=O)c1cnc(Nc2ccn(CCO)n2)s1 [BAA-011] | < 50 nM | – | – | – | 1000 to 11000 nM | W (10-<100 fold) | – | – | –
7 | CCCCn1ccc(Nc2ncc(C(=O)Nc3c(C)ccc(O)c3C)s2)n1 [BAA-012, 2-[(1-butylpyrazol-3-yl)amino]-N-(3-hydroxy-2,6-dimethyl-phenyl)thiazole-5-carboxamide] | 50 to 1000 nM | – | – | – | 1000 to 11000 nM | W (10-<100 fold) | – | – | –
8 | Cc1ccc(O)c(C)c1NC(=O)c1cnc(Nc2ccn(C3CCCC3)n2)s1 [BAA-014, 2-[(1-cyclopentylpyrazol-3-yl)amino]-N-(3-hydroxy-2,6-dimethyl-phenyl)thiazole-5-carboxamide] | < 50 nM | – | – | – | 1000 to 11000 nM | W (10-<100 fold) | – | – | –
9 | Cc1ccc(O)c(C)c1NC(=O)c1cnc(Nc2nc(C(F)(F)F)cs2)s1 [BAA-017] | 50 to 1000 nM | – | – | – | > 11000 nM | >X (100-<1000 fold) | – | – | –
10 | Cc1ccc(O)c(C)c1NC(=O)c1cnc(Nc2nc(CO)cs2)s1 [BAA-018] | < 50 nM | – | – | – | > 11000 nM | X (100-<1000 fold) | – | – | –
11 | Cc1ccc(O)c(C)c1NC(=O)c1cnc(Nc2ccn(CC(F)(F)F)n2)s1 [BAA-019, N-(3-hydroxy-2,6-dimethyl-phenyl)-2-[[1-(2,2,2-trifluoroethyl)pyrazol-3-yl]amino]thiazole-5-carboxamide] | 50 to 1000 nM | – | – | – | > 11000 nM | X (100-<1000 fold) | – | – | –
12 | CCOC(=O)CCCn1ccc(Nc2ncc(C(=O)Nc3c(C)ccc(O)c3C)s2)n1 [BAA-022] | 50 to 1000 nM | – | – | – | 1000 to 11000 nM | W (10-<100 fold) | – | – | –
13 | CCOC(=O)Cn1ccc(Nc2ncc(C(=O)Nc3c(C)ccc(O)c3C)s2)n1 [BAA-023] | < 50 nM | – | – | – | 1000 to 11000 nM | X (100-<1000 fold) | – | – | –
14 | CCOC(=O)c1cc(Nc2ncc(C(=O)Nc3c(C)ccc(O)c3C)s2)nn1C [BAA-024] | < 50 nM | – | – | – | 1000 to 11000 nM | X (100-<1000 fold) | – | – | –
15 | Cc1ccc(O)c(C)c1NC(=O)c1cnc(Nc2ccn(C(F)F)n2)s1 [BAA-025, 2-[[1-(difluoromethyl)pyrazol-3-yl]amino]-N-(3-hydroxy-2,6-dimethyl-phenyl)thiazole-5-carboxamide] | 50 to 1000 nM | – | – | – | > 11000 nM | X (100-<1000 fold) | – | – | –
16 | Cc1ccc(O)c(C)c1NC(=O)c1cnc(Nc2nncs2)s1 [BAA-028, N-(3-hydroxy-2,6-dimethyl-phenyl)-2-(1,3,4-thiadiazol-2-ylamino)thiazole-5-carboxamide] | < 50 nM | – | – | – | > 11000 nM | X (100-<1000 fold) | – | – | –

The remaining lines, values ahead:

Row | IC50 (Human PKMYT1; [1]) | IC50 (Human PKMYT1; PKMYT1 biochemical ADP-Glo enzymatic assay, Comparison Data 1) | improvement in PKMYT1 IC50 as compared to REF-001 (Human PKMYT1; vs REF-001) | improvement in PKMYT1 IC50 as compared to REF-002 (Human PKMYT1; vs REF-002) | IC50 (WEE1) | PKMYT1 vs. WEE1 selectivity (WEE1) | IC50 (Human PKMYT1; PKMYT1 biochemical ADP-Glo enzymatic assay, Comparison Data 2) | improvement in PKMYT1 IC50 as compared to REF-003 (Human PKMYT1; vs REF-003) | improvement in PKMYT1 IC50 as compared to REF-004 (Human PKMYT1; vs REF-004) | SMILES
17 | 50 to 1000 nM | 327 nM | 163 fold | 82 fold | > 11000 nM | X (100-<1000 fold) | – | – | – | Cc1ccc(O)c(C)c1NC(=O)c1cnc(N)s1 [BAA-001, 2-Amino-N-(3-hydroxy-2,6-dimethyl-phenyl)thiazole-5-carboxamide]
18 | < 50 nM | – | – | – | 1000 to 11000 nM | W (10-<100 fold) | – | – | – | Cc1ccc(O)c(C)c1NC(=O)c1cnc(Nc2ccn(CCCO)n2)s1 [BAA-002, N-(3-Hydroxy-2,6-dimethyl-phenyl)-2-[[1-(3-hydroxypropyl)pyrazol-3-yl]amino]thiazole-5-carboxamide]
19 | 1000 to 11000 nM | – | – | – | > 11000 nM | W (10-<100 fold) | – | – | – | Cc1ccc(O)c(C)c1NC(=O)c1cnc(Nc2cc[nH]n2)s1 [BAA-003, N-(3-hydroxy-2,6-dimethyl-phenyl)-2-(1H-pyrazol-3-ylamino)thiazole-5-carboxamide]
20 | < 50 nM | – | – | – | 1000 to 11000 nM | X (100-<1000 fold) | – | – | – | CCn1ccc(Nc2ncc(C(=O)Nc3c(C)ccc(O)c3C)s2)n1 [BAA-005, 2-[(1-ethylpyrazol-3-yl)amino]-N-(3-hydroxy-2,6-dimethyl-phenyl)thiazole-5-carboxamide]
21 | < 50 nM | – | – | – | 50 to 1000 nM | W (10-<100 fold) | – | – | – | Cc1ccc(O)c(C)c1NC(=O)c1cnc(Nc2ccn(C3COC3)n2)s1 [BAA-007, N-(3-hydroxy-2,6-dimethyl-phenyl)-2-[[1-(oxetan-3-yl)pyrazol-3-yl]amino]thiazole-5-carboxamide]
22 | < 50 nM | – | – | – | 1000 to 11000 nM | X (100-<1000 fold) | – | – | – | Cc1ccc(O)c(C)c1NC(=O)c1cnc(Nc2ccn(C3CCCCC3)n2)s1 [BAA-015, 2-[(1-cyclohexylpyrazol-3-yl)amino]-N-(3-hydroxy-2,6-dimethyl-phenyl)thiazole-5-carboxamide]
23 | 50 to 1000 nM | – | – | – | > 11000 nM | >X (100-<1000 fold) | – | – | – | Cc1ccc(O)c(C)c1NC(=O)c1cnc(Nc2sccc2C(N)=O)s1 [BAA-021, 2-[(3-carbamoyl-2-thienyl)amino]-N-(3-hydroxy-2,6-dimethyl-phenyl)thiazole-5-carboxamide]
24 | 50 to 1000 nM | – | – | – | > 11000 nM | X (100-<1000 fold) | – | – | – | Cc1ccc(O)c(C)c1NC(=O)c1cnc(Nc2ncco2)s1 [BAA-027, N-(3-hydroxy-2,6-dimethyl-phenyl)-2-(oxazol-2-ylamino)thiazole-5-carboxamide]
